Earlier results in patent publication US20120046321A1, “METHODS OF TREATING ATRIAL FIBRILLATION WITH P38 INHIBITOR COMPOUNDS” (INTERMUNE, INC., priority 2005, published 2012).

Tested on: canine model, VTP-induced CHF
Conditions: Li et al., Circulation 2001; cited from earlier work

CCOC(=O)[C@H](CCc1ccccc1)N[C@@H](C)C(=O)N1CCC[C@H]1C(=O)O [enalapril]
Ang II concentration: reduction
Arrhythmogenic atrial remodeling: less
ERK activation: reduction
